Assay results taken from patent publication US9770429B2, “4-methylsulfonyl-2-butenenitrile and its pharmaceutical use” (OLATEC THERAPEUTICS LLC, priority 2013, dated 2017).

Test system: arachidonic acid-induced ear swelling
Experiment: topical arachidonic acid-induced ear swelling model in mice
Type: in vivo
Details: for % Inhibition of ear swelling: male ICR mice, topical application 30 min before and 15 min after arachidonic acid, measured at 90 minutes after arachidonic acid, indomethacin 14 mM (0.1 mg/20 μL), test compound 375 mM (1.1 mg/20 μL), relative to vehicle
Description: 4-Methylsulfonyl-2-butenenitrile, prepared from Example 1, was used in this experiment. The test compound, indomethacin (positive control), and vehicle were evaluated for anti-inflammatory activity in a topical arachidonic acid-induced ear swelling model in mice. Male ICR mice weighing 22±2 g were used and randomly divided; the test compound and vehicle control had 10 mice, and indomethacin had 5 mice. Arachidonic Acid (0.5 mg in 20 μl of acetone:ethanol/1:1) was applied topically to the anterior and posterior surfaces of the right ear of each mouse. Test substances and vehicle, as listed in Table 2 were similarly applied 30 min before and 15 min after arachidonic acid application. The thickness of the right ear and the left ear was measured and the difference calculated as an indication of the inflammation in the right ear. Ear swelling was measured by a Dyer model micrometer gauge at 60 and 90 minutes after arachidonic acid application as an index of inflammation. Percent inhibition was calculated according to the formula: Ic−It/Ic×100, where Ic and It refers to increase of ear thickness (mm) in control and treated mice, respectively. ANOVA and Dunnett's test were employed to ascertain significant difference between vehicle control and treated groups. Significance is set at P<0.05 level.

| SMILES | anti-inflammatory activity in the mouse ear swelling model (in words) (applied topically, inflammation induced by arachidonic acid) | % Inhibition of ear swelling [%] |
| --- | --- | --- |
| CS(=O)(=O)C/C=C/C#N [4-methylsulfonyl-2-butenenitrile] | anti-inflammatory | 22 |
| COc1ccc2c(c1)c(CC(=O)O)c(C)n2C(=O)c1ccc(Cl)cc1 [Indomethacin, indomethacin, reference compound] |  | 58 |
